Assay results taken from US8883826B2, “Alkynyl derivatives as modulators of metabotropic glutamate receptors” (Addex Pharma SA, priority 2004, dated 2014).

Molecular target: T1, mGluR5 (Rattus norvegicus, UniProt P31424)
T1 construct: tissue Charles River Laboratories; host or cells: rat brain cortex membranes (Sprague-Dawley)
Experiment: mGluR5 binding assay ([3H]-MPEP radioligand competition)
Conditions: competition with 3 nM [3H]-MPEP, rat brain cortical membranes, 1 h at 4 °C; mean of at least three independent experiments in duplicate
Procedure, shortened: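 Rat cortical membranes (50 μg) were incubated 1 h at 4 °C with 3 nM [3H]-MPEP and compound (0.003 nM-30 μM, 8 points) in HEPES buffer pH 7.4 with Mg2+, Ca2+ and NaCl. 30 μM MPEP defined non-specific binding, and bound label was counted after filtration. IC50 came from non-linear regression, as the mean of ≥3 experiments run in duplicate.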

T1 sequence (P31424 21-1203): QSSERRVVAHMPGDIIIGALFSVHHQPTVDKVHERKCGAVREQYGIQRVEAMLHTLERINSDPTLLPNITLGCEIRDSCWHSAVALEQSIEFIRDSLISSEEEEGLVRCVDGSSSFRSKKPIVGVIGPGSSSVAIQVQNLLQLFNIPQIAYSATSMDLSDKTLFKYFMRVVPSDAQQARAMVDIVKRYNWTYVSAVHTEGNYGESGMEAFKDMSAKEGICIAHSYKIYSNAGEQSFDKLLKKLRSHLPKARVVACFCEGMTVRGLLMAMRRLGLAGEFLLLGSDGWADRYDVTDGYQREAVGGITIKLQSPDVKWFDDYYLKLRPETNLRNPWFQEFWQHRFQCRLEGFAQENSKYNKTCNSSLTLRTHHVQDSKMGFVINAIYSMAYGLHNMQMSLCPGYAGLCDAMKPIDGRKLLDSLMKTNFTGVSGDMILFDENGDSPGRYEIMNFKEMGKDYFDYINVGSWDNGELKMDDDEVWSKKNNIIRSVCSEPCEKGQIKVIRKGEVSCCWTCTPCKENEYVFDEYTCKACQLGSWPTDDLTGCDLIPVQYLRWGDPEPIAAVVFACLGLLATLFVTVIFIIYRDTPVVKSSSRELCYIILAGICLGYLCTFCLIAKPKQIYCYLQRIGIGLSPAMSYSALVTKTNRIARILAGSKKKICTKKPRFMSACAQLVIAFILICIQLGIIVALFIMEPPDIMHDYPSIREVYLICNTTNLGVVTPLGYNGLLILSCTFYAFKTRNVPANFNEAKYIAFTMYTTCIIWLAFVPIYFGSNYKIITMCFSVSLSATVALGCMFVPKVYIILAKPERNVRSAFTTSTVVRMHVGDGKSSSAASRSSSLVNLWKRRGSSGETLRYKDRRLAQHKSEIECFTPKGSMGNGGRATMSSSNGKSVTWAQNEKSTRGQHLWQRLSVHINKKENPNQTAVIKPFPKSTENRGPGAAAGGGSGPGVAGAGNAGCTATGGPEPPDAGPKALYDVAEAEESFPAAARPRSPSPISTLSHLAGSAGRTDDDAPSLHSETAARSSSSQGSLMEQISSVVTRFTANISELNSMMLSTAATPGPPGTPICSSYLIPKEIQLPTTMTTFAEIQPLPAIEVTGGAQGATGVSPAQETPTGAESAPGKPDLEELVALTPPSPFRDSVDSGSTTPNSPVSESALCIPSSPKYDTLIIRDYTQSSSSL

Compound | IC50
Fc1cccc(C#CCCc2nc3ccccc3s2)n1 [Example 117, 2-(4-(6-Fluoropyridin-2-yl)but-3-ynyl)benzo[d]thiazole] | < 10 µM
C(#Cc1ccccn1)CCc1ccc2ccccc2n1 [Example 118, 2-(4-(Pyridin-2-yl)but-3-ynyl)quinoline] | < 0.5 µM
C(#Cc1ccccn1)CCn1cc(-c2ccccc2)cn1 [Example 122, 2-(4-(4-Phenyl-1H-pyrazol-1-yl)but-1-ynyl)pyridine] | < 10 µM
Clc1cccc2cn(CCC#Cc3ccccn3)nc12 [Example 123, 7-Chloro-2-(4-(pyridin-2-yl)but-3-ynyl)-2H-indazole] | < 10 µM
C(#Cc1ccccn1)CCCCn1nc2ccccc2n1 [Example 124, 2-(6-(Pyridin-2-yl)hex-5-ynyl)-2H-benzo[d][1,2,3]triazole] | < 10 µM
FCc1cccc(C#CCCn2cc3ccccc3n2)n1 [Example 133, 2-(4-(6-(Fluoromethyl)pyridin-2-yl)but-3-ynyl)-2H-indazole] | < 10 µM
Fc1cc(F)c2nn(CCC#Cc3ccccn3)nc2c1 [Example 135, 4,6-Difluoro-2-(4-(pyridin-2-yl)but-3-ynyl)-2H-benzo[d][1,2,3]triazole] | < 10 µM
Fc1ccc2nn(CCC#Cc3ccccn3)nc2c1F [Example 136, 4,5-Difluoro-2-(4-(pyridin-2-yl)but-3-ynyl)-2H-benzo[d][1,2,3]triazole] | < 10 µM
Cc1cccc(C#CCCn2nc3ccccc3n2)n1 [Example 137, 2-(4-(6-Methylpyridin-2-yl)but-3-ynyl)-2H-benzo[d][1,2,3]triazole] | < 0.05 µM
FCc1cccc(C#CCCn2nc3ccc(F)cc3n2)n1 [Example 139, 5-Fluoro-2-(4-(6-(fluoromethyl)pyridin-2-yl)but-3-ynyl)-2H-benzo[d][1,2,3]triazole] | < 0.05 µM
Cc1nc(C#CCCn2nc3ccccc3n2)cs1 [Example 141, 2-(4-(2-Methylthiazol-4-yl)but-3-ynyl)-2H-benzo[d][1,2,3]triazole] | < 0.05 µM
Cc1ccccc1-c1cnn(CCC#Cc2ccccn2)c1 [Example 142, 2-(4-(4-o-Tolyl-1H-pyrazol-1-yl)but-1-ynyl)pyridine] | < 10 µM
Clc1cccc2nn(CCC#Cc3ccccn3)nc12 [Example 146, 4-Chloro-2-(4-(pyridin-2-yl)but-3-ynyl)-2H-benzo[d][1,2,3]triazole] | < 0.05 µM
FCc1cccc(C#CCCn2nc3cccc(Cl)c3n2)n1 [Example 147, 4-Chloro-2-(4-(6-(fluoromethyl)pyridin-2-yl)but-3-ynyl)-2H-benzo[d][1,2,3]triazole] | < 0.05 µM
FCc1cccc(C#CCCn2cc3c(F)cccc3n2)n1 [Example 149, 4-Fluoro-2-(4-(6-(fluoromethyl)pyridin-2-yl)but-3-ynyl)-2H-indazole] | < 0.05 µM
Clc1cccc2nn(CCC#Cc3ccccn3)cc12 [Example 150, 4-Chloro-2-(4-(pyridin-2-yl)but-3-ynyl)-2H-indazole] | < 0.05 µM
FCc1cccc(C#CCCn2cc3ccc(F)cc3n2)n1 [Example 151, 6-Fluoro-2-(4-(6-(fluoromethyl)pyridin-2-yl)but-3-ynyl)-2H-indazole] | < 0.05 µM
Cn1ccc(C#CCCn2nc3cccc(Cl)c3n2)n1 [Example 156, 4-Chloro-2-(4-(1-methyl-1H-pyrazol-3-yl)but-3-ynyl)-2H-benzo[d][1,2,3]triazole] | < 0.05 µM
Nc1cccc(C#CCCn2nc3cc(F)cc(F)c3n2)n1 [Example 157, 6-(4-(4,6-Difluoro-2H-benzo[d][1,2,3]triazol-2-yl)but-1-ynyl)pyridin-2-amine] | < 10 µM
C(#Cc1ccccn1)CCn1ccc(-c2ccccc2)n1 [Example 159, 2-(4-(3-Phenyl-1H-pyrazol-1-yl)but-1-ynyl)pyridine] | < 10 µM
O=[N+]([O-])c1cccc2nn(CCC#Cc3cccc(CF)n3)nc12 [Example 161, 2-(4-(6-(Fluoromethyl)pyridin-2-yl)but-3-ynyl)-4-nitro-2H-benzo[d][1,2,3]triazole] | < 10 µM
Cc1cccc2nn(CCC#Cc3ccccn3)nc12 [Example 163, 4-Methyl-2-(4-(pyridin-2-yl)but-3-ynyl)-2H-benzo[d][1,2,3]triazole] | < 0.05 µM
Fc1ccc(-c2ccnn2CCC#Cc2ccccn2)cc1 [Example 171, 2-(4-(5-(4-Fluorophenyl)-1H-pyrazol-1-yl)but-1-ynyl)pyridine] | < 10 µM
FC(CC#Cc1ccccn1)c1cnc2ccccc2n1 (centres unmarked) [Example 172, 2-(1-Fluoro-4-(pyridin-2-yl)but-3-ynyl)quinoxaline] | < 10 µM

Now from value to compound:

IC50 | Compound
< 10 µM | Cn1ccc(C#CCCc2nc3ccccc3s2)n1 [Example 121, 2-(4-(1-Methyl-1H-pyrazol-3-yl)but-3-ynyl)benzo[d]thiazole]
< 10 µM | Fc1ccc2nn(CCC#Cc3ccccn3)nc2c1 [Example 127, 5-Fluoro-2-(4-(pyridin-2-yl)but-3-ynyl)-2H-benzo[d][1,2,3]triazole]
< 0.05 µM | Cc1cccc(C#CCCc2ccc3ccccc3n2)n1 [Example 128, 2-(4-(6-Methylpyridin-2-yl)but-3-ynyl)quinoline]
< 10 µM | Fc1cccnc1C#CCCn1nc2ccccc2n1 [Example 138, 2-(4-(3-Fluoropyridin-2-yl)but-3-ynyl)-2H-benzo[d][1,2,3]triazole]
< 10 µM | Fc1ccc(-c2cnn(CCC#Cc3ccccn3)c2)cc1 [Example 140, 2-(4-(4-(4-Fluorophenyl)-1H-pyrazol-1-yl)but-1-ynyl)pyridine]
< 10 µM | Cc1ccccc1-c1cnn(CCC#Cc2cccc(CF)n2)c1 [Example 143, 2-(Fluoromethyl)-6-(4-(4-o-tolyl-1H-pyrazol-1-yl)but-1-ynyl)pyridine]
< 10 µM | FCc1cccc(C#CCCn2cc(-c3ccc(F)cc3)cn2)n1 [Example 144, 2-(Fluoromethyl)-6-(4-(4-(4-fluorophenyl)-1H-pyrazol-1-yl)but-1-ynyl)pyridine]
< 0.05 µM | FCc1cccc(C#CCCc2cnc3cc(F)ccc3n2)n1 [Example 145, 6-Fluoro-2-(4-(6-(fluoromethyl)pyridin-2-yl)but-3-ynyl)quinoxaline]
< 0.05 µM | FCc1cccc(C#CCCn2cc3c(Cl)cccc3n2)n1 [Example 152, 4-Chloro-2-(4-(6-(fluoromethyl)pyridin-2-yl)but-3-ynyl)-2H-indazole]
< 0.05 µM | FCc1cccc(C#CCCn2cc3cccc(F)c3n2)n1 [Example 155, 7-Fluoro-2-(4-(6-(fluoromethyl)pyridin-2-yl)but-3-ynyl)-2H-indazole]
< 10 µM | O=[N+]([O-])c1cccc2nn(CCC#Cc3ccccn3)nc12 [Example 160, 4-Nitro-2-(4-(pyridin-2-yl)but-3-ynyl)-2H-benzo[d][1,2,3]triazole]
< 0.05 µM | Cc1cccc2nn(CCC#Cc3cccc(CF)n3)nc12 [Example 164, 2-(4-(6-(Fluoromethyl)pyridin-2-yl)but-3-ynyl)-4-methyl-2H-benzo[d][1,2,3]triazole]
< 0.05 µM | Cc1ccc2nn(CCC#Cc3cccc(CF)n3)nc2c1 [Example 165, 2-(4-(6-(Fluoromethyl)pyridin-2-yl)but-3-ynyl)-5-methyl-2H-benzo[d][1,2,3]triazole]
< 0.5 µM | Cc1ccc2nn(CCC#Cc3ccccn3)nc2c1 [Example 166, 5-Methyl-2-(4-(pyridin-2-yl)but-3-ynyl)-2H-benzo[d][1,2,3]triazole]
